This passage reports EC50 results from patent publication US11731977B2, “SGC stimulators” (Cyclerion Therapeutics, Inc., priority 2016, dated 2023).

The structures appear in SMILES notation. pEC50: −log10 of the molar value.

What is called pEC50 is the negative decadic logarithm of the EC50, by convention in mol/L.

The test deals with T1, sGC enzyme (Homo sapiens, UniProt Q02108+Q02153).
T1 construct: sGC enzyme activity values in HEK cells, determined by the GloSensor assay; host or cells: HEK293 cells stably expressing GloSensor 40F cGMP biosensor
T1 sequence (Q02153 1-619): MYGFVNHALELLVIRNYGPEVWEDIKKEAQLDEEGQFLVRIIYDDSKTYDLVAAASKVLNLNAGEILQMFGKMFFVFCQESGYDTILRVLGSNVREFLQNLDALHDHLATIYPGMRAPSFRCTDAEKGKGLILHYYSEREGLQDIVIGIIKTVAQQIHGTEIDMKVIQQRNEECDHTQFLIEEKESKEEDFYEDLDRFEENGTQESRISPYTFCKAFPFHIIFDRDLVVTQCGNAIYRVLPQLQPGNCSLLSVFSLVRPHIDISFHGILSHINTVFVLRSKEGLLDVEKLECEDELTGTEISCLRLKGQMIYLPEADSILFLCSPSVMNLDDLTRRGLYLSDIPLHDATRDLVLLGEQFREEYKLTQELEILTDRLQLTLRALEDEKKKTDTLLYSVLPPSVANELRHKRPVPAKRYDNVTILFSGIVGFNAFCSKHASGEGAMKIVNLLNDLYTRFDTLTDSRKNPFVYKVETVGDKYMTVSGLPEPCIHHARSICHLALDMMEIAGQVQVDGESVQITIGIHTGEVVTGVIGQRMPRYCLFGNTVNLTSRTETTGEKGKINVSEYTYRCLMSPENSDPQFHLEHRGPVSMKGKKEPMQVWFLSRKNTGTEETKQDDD
T1 sequence (Q02108 1-690): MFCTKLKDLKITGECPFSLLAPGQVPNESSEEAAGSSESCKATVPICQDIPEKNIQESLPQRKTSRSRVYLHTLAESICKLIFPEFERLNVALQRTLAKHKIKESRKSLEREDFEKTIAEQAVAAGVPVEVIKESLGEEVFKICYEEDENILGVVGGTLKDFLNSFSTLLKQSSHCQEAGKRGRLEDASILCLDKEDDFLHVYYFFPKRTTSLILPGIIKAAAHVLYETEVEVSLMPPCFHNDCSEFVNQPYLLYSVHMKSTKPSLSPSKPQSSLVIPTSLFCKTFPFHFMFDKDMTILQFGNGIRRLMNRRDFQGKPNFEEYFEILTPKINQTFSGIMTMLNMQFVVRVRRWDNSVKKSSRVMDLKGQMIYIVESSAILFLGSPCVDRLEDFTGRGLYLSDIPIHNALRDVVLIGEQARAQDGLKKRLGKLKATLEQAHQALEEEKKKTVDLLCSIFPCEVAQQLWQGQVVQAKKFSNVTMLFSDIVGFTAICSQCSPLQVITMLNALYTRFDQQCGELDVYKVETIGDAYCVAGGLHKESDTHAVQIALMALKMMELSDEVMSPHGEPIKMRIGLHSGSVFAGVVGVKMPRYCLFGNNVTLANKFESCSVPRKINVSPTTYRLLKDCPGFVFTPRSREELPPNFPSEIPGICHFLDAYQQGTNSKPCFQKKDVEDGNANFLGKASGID
Put plainly: cGMP GloSensor cell-based assay, 384-well format (Example 2a). The following applies: HEK293 GloSensor 40F cGMP cells; 10 μM DETA-NONOate; 50% of high control (30 μM Compound Y); read-out: Abs EC50. From the text:
Human embryonic kidney cells (HEK293) cells expressing GloSensor™ 40F cGMP (Part No: CS182801, Promega) were used to evaluate the activity of test compounds. The luminescent biosensors (engineered luciferase) that were incorporated into these cells detect cGMP formed by the compounds stimulating the sGC enzyme and emit luminescence.
cGMP GloSensor cells were maintained in Dulbecco's Modification of Eagle's Medium (DMEM) supplemented with fetal bovine serum (FBS, 10% final) and hygromycine (200 ug/ml). The day before assay, cells were plated in DMEM with 10% FBS in a 50 μL volume at a density of 1.5×10^4 cells/well in a poly-D-lysine coated 384-well flat white-bottom plate (Corning Cat No 35661). Cells were incubated overnight at 37° C. in a humidified chamber with 5% CO2. The next day, medium was removed and cells were replaced with 40 ul/well of GloSensor™, 2 mM (Promega Cat No E1291). Cells were treated for 90 minutes at 25° C. to allow the substrate to equilibrate in the cells. Test compounds and Diethylenetriamine NONOate (DETA-NONOate, or DETA-NO) was diluted to 3 mM (20×) in serum-free CO2 independent medium and serially diluted at 4× dilutions to create 5× dose curve from which 10 ul was added to the wells (x μM concentration for test compound solution and 10 μM concentration for DETA-NONOate solution; wherein x is one of the following final concentrations: 30000 nM, 7500 nM, 1875 nM, 468.8 nM, 117.2 nM, 29.29 nM, 7.320 nM, 1.830 nM, 0.460 nM, 0.114 nM, and 0.029 nM).
For the kinetics studies, luminescense was measured right away for 0.2 sec per well with Envision (Perkin Elmer). For endpoint SAR screening, data were collected after 55 min incubation at room temperature.
Data were normalized to a high control using the following equation: 100*(Sample−Low Control)/(High Control−Low Control), where the low control is the average of 16 samples treated with 1% DMSO, and the high control is the average of 16 samples treated with 30 μM of Compound Y depicted below. Data were fit using a 4-parameter fit (log(agonist) vs. response—variable slope) using GraphPad Prism Software v.5. n=2 for all compounds. The Absolute (Abs) EC50 was interpolated from the curve fit and is defined as the concentration at which a given compound elicits 50% of the high control response after data normalization as indicated above. Compounds failing to elicit a minimum response of 50% are reported as >30 μM or ND. For compounds run in duplicate or n higher than 2, the result herein given is the geometric mean of the several results obtained.
As for `Cc1nc(-c2cn3ccnc3c(Cc3ccccc3F)n2)nn1Cc1ccc(F)cc1` [Compound I-41, 8-(2-Fluorobenzyl)-6-(1-(4-fluorobenzyl)-5-methyl-1H-1,2,4-triazol-3-yl)imidazo[1,2-a]pyrazine], the pEC50 is at least 7.00.

On to `Cc1nc(-c2cn3ccnc3c(Cc3ccccc3F)n2)n(Cc2ccc(F)cc2)n1` [Compound I-42, 8-(2-fluorobenzyl)-6-(1-(4-fluorobenzyl)-3-methyl-1H-1,2,4-triazol-5-yl)imidazo[1,2-a]pyrazine], for which the pEC50 was under 6.00.

With `Cc1nc(-c2cn3ccnc3c(Cc3ccccc3F)n2)nn1Cc1cccc(F)c1` [Compound I-47, 8-(2-Fluorobenzyl)-6-(1-(3-fluorobenzyl)-5-methyl-1H-1,2,4-triazol-3-yl)imidazo[1,2-a]pyrazine], the pEC50 was at least 7.00.

For `Cc1nc(-c2cn3ccnc3c(Cc3ccccc3F)n2)nn1CC(=O)C(C)(C)C` [Compound I-48, 1-(3-(8-(2-Fluorobenzyl)imidazo[1,2-a]pyrazin-6-yl)-5-methyl-1H-1,2,4-triazol-1-yl)-3,3-dimethylbutan-2-one], the pEC50 was at least 7.00.

Regarding `Cc1nc(-c2cn3ccnc3c(Cc3ccccc3F)n2)nn1CCCCF` [Compound I-50, 8-(2-Fluorobenzyl)-6-(1-(4-fluorobutyl)-5-methyl-1H-1,2,4-triazol-3-yl)imidazo[1,2-a]pyrazine], the pEC50 was 6.00 to 7.00.

Consider `Cc1cc(Cn2nc(-c3cn4ccnc4c(Cc4ccccc4F)n3)nc2C)no1` [Compound I-51, 3-((3-(8-(2-Fluorobenzyl)imidazo[1,2-a]pyrazin-6-yl)-5-methyl-1H-1,2,4-triazol-1-yl)methyl)-5-methylisoxazole], for which the pEC50 is at least 7.00.

`CCn1nc(-c2cn3ccnc3c(Cc3ccccc3F)n2)nc1C` [Compound I-53, 6-(1-Ethyl-5-methyl-1H-1,2,4-triazol-3-yl)-8-(2-fluorobenzyl)imidazo[1,2-a]pyrazine]: the pEC50 is 6.00 to 7.00.

In the case of `Cc1nc(-c2cn3ccnc3c(Cc3ccccc3F)n2)nn1CCC(F)(F)F` [Compound I-54, 8-(2-Fluorobenzyl)-6-(5-methyl-1-(3,3,3-trifluoropropyl)-1H-1,2,4-triazol-3-yl)imidazo[1,2-a]pyrazine], the pEC50 was 6.00 to 7.00.

With `CCCCn1nc(-c2cn3ccnc3c(Cc3ccccc3F)n2)nc1C` [Compound I-56, 6-(1-Butyl-5-methyl-1H-1,2,4-triazol-3-yl)-8-(2-fluorobenzyl)imidazo[1,2-a]pyrazine], the pEC50 was at least 7.00.

Regarding `Nc1n[nH]c(-c2cn3ccnc3c(Cc3ccccc3F)n2)n1` [Compound I-57, 5-(8-(2-Fluorobenzyl)imidazozo[1,2-a]pyrazin-6-yl)-1H-1,2,4-triazol-3-amine], the pEC50 was 6.00 to 7.00.

As to `Nc1nc(-c2cn3ccnc3c(Cc3ccccc3F)n2)nn1Cc1cccc(F)c1` [Compound I-58, 1-(3-Fluorobenzyl)-3-(8-(2-fluorobenzyl)imidazo[1,2-a]pyrazin-6-yl)-1H-1,2,4-triazol-5-amine], the pEC50 is at least 7.00.

For `Nc1nc(-c2cn3ccnc3c(Cc3ccccc3F)n2)nn1CC(F)(F)F` [Compound I-59, 3-(8-(2-Fluorobenzyl)imidazo[1,2-a]pyrazin-6-yl)-1-(2,2,2-trifluoroethyl)-1H-1,2,4-triazol-5-amine], the pEC50 was at least 7.00.

As to `Nc1nc(-c2cn3ccnc3c(Cc3ccccc3F)n2)n(CC(F)(F)F)n1` [Compound I-60, 5-(8-(2-fluorobenzyl)imidazo[1,2-a]pyrazin-6-yl)-1-(2,2,2-trifluoroethyl)-1H-1,2,4-triazol-3-amine], the pEC50 was under 6.00.

On to `Fc1ccccc1Cc1nc(-c2nc(Cl)n[nH]2)cn2ccnc12` [Compound I-62, 6-(3-Chloro-1H-1,2,4-triazol-5-yl)-8-(2-fluorobenzyl)-imidazo[1,2-a]pyrazine], for which the pEC50 was at least 7.00.

Take `Fc1ccccc1Cc1nc(-c2nc(-n3ccnc3)n[nH]2)cn2ccnc12` [Compound I-63, 6-(3-(1H-imidazol-1-yl)-1H-1,2,4-triazol-5-yl)-8-(2-fluorobenzyl)imidazo[1,2-a]pyrazine]: the pEC50 is 6.00 to 7.00.

Take `CN(C)c1n[nH]c(-c2cn3ccnc3c(Cc3ccccc3F)n2)n1` [Compound I-65, 5-(8-(2-fluorobenzyl)imidazo[1,2-a]pyrazin-6-yl)-N,N-dimethyl-1H-1,2,4-triazol-3-amine]: the pEC50 was 6.00 to 7.00.

With `Fc1ccccc1Cc1nc(-c2nc(C(F)(F)F)n[nH]2)cn2c(I)cnc12` [Compound I-66, 8-(2-Fluorobenzyl)-3-iodo-6-(3-(trifluoromethyl)-1H-1,2,4-triazol-5-yl)imidazo[1,2-a]pyrazine], the pEC50 was 6.00 to 7.00.

As for `Fc1ccccc1Cc1nc(-c2nc(C(F)(F)F)n[nH]2)cn2c(Cl)cnc12` [Compound I-67, 3-Chloro-8-(2-fluorobenzyl)-6-(3-(trifluoromethyl)-1H-1,2,4-triazol-5-yl)imidazo[1,2-a]pyrazine], the pEC50 is at least 7.00.

Consider `Fc1ccccc1Cc1nc(-c2nc(C(F)(F)F)n[nH]2)cn2c(F)cnc12` [Compound I-68, 3-Fluoro-8-(2-fluorobenzyl)-6-(3-(trifluoromethyl)-1H-1,2,4-triazol-5-yl)imidazo[1,2-a]pyrazine], for which the pEC50 is at least 7.00.

For the molecule `N#Cc1cnc2c(Cc3ccccc3F)nc(-c3nc(C(F)(F)F)n[nH]3)cn12` [Compound I-70, 8-(2-Fluorobenzyl)-6-(3-(trifluoromethyl)-1H-1,2,4-triazol-5-yl)imidazo[1,2-a]pyrazine-3-carbonitrile], the pEC50 was 6.00 to 7.00.

Turning to `Cc1cnc2c(Cc3ccccc3F)nc(-c3nc(C(F)(F)F)n[nH]3)cn12` [Compound I-71, 8-(2-Fluorobenzyl)-3-methyl-6-(3-(trifluoromethyl)-1H-1,2,4-triazol-5-yl)imidazo[1,2-a]pyrazine], the pEC50 is at least 7.00.

`Fc1ccccc1Cc1nc(-c2nc(C(F)(F)F)n[nH]2)cn2cnnc12` [Compound I-72, 8-(2-Fluorobenzyl)-6-(3-(trifluoromethyl)-1H-1,2,4-triazol-5-yl)-[1,2,4]triazolo[4,3-a]pyrazine]: the pEC50 was under 6.00.
